Entries after “also recorded” stand apart in the source; their conditions may differ.
Assays:
[1] = ref livertox.nih.gov database; cited from earlier work
[2] = test system: p21-GFP (p53-mediated DNA damage-related response); experiment: HepG2 p21-GFP BAC reporter, live cell confocal imaging (DNA damage); assay type: cell-based, Human; settings: 24 h live imaging, 1-100 C-max
Procedure: (§1) Human hepatoma HepG2 cells were acquired from ATCC (clone HB8065). HepG2 Srxn1, DDIT3 (CHOP), CDKN1A (p21) and ICAM1 BAC GFP reporter cell lines were previously established and characterized (Wink et al. [2017]). HepG2 BAC GFP reporters were maintained and exposed to drugs in DMEM high glucose supplemented with 10% (v/v) FBS, 25 U/mL penicillin and 25 µg/mL streptomycin. The cell lines were used between passage 5 and 25. For live cell imaging, the cells were seeded in Greiner black µ-clear 384 wells plates, at 8000 cells per well.
Accumulation of GFP levels, propodium iodide (PI) and Hoechst staining was monitored using a Nikon TiE2000 confocal laser microscope (lasers 540, 488 and 408 nm), equipped with an automated stage and perfect focus system at 37 °C with humidified atmosphere and 5% CO2/air mixture. All imaging was similar as previously described^5. […]
Quantitative image analysis was performed with CellProfiler version 2.1.1 (Kamentsky et al. [2011]) with an in house developed CellProfiler module implementing the watershed masked algorithm for segmentation (Yan and Verbeek [2012]; Wink et al. [2017]). […] For each reporter hourly intensity levels of the GFP signal, the nuclear Hoechst33342 intensity levels and at 24 h the PI staining were measured at the single cell level. In addition, cell numbers, nuclei size and cell motility were measured.
GFP intensity cell population means were calculated. In addition, for each plate the cell population mean GFP intensity of the DMSO treated cells was calculated to determine background control values. Per plate, the single cells that had values above the 2X mean, 3X mean were counted resulting in GFP positive fraction measures. For ICAM1, the background control values consisted of DMSO conditions treated with TNFα, and the single cells with values above, as well as below background values were counted. […]

[3] = test system: ICAM1-GFP (NF-κB-mediated inflammatory signaling); experiment: HepG2 ICAM1-GFP BAC reporter, TNFα-induced, live cell confocal imaging; assay type: cell-based, Human; settings: for modulation of TNFα-induced ICAM1-GFP response: HepG2 BAC-GFP, 8 h compound then TNFα 10 ng/mL, 24 h live imaging, 1-100 C-max
Procedure: Human hepatoma HepG2 cells were acquired from ATCC (clone HB8065). HepG2 Srxn1, DDIT3 (CHOP), CDKN1A (p21) and ICAM1 BAC GFP reporter cell lines were previously established and characterized (Wink et al. [2017]). […] The cell lines were used between passage 5 and 25. For live cell imaging, the cells were seeded in Greiner black μ-clear 384 wells plates, at 8000 cells per well. […] All imaging was similar as previously described^5. […] Directly after TNFα treatment the live cell imaging was started. Quantitative image analysis was performed with CellProfiler version 2.1.1 ([…] et al. [2011]) with an in house developed CellProfiler module implementing the watershed masked algorithm for segmentation (Yan and Verbeek [2012]; Wink et al. [2017]). Image analysis results were stored as HDF5 files. Data analysis, quality control and graphics were performed using the in house developed R package h5CellProfiler (manuscript in preparation). For each reporter hourly intensity levels of the GFP signal, the nuclear Hoechst33342 intensity levels and at 24 h the PI staining were measured at the single cell level. In addition, cell numbers, nuclei size and cell motility were measured. GFP intensity cell population means were calculated. In addition, for each plate the cell population mean GFP intensity of the DMSO treated cells was calculated to determine background control values. Per plate, the single cells that had values above the 2X mean, 3X mean were counted resulting in GFP positive fraction measures. For ICAM1, the background control values consisted of DMSO conditions treated with TNFα, and the single cells with values above, as well as below background values were counted. […] Linear regression was applied with respect to time to quantify treatment effects on a plate-to-plate basis to quantify cell speed, nuclear size, Hoechst nuclear intensity and cell numbers. […] The maximum values over time of the scaled intensity levels and positive GFP fractions were selected for the concentration response curves. These values were fit to a four parameter log-logistic model using the drc package (Ritz et al. [2015]). BMC values were calculated as the concentration at which + 0.25 (and - 0.25 for ICAM1) absolute increase from the initial response values occurred (Fig. 5a).

[4] = C-max obtained from FDA or literature; ref per compound (FDA, Dailymed, Xu, O’Brien, Khetani, Regenthal, Gustafsson, Dawson, Ogutu, Patel, Schmidt, Ravic, Keisu, Hu, Wagner); cited from earlier work
[5] = test system: Srxn1-GFP (oxidative stress); experiment: HepG2 Srxn1-GFP BAC reporter, live cell confocal imaging (oxidative stress); assay type: cell-based, Human; settings: HepG2 BAC-GFP, 24 h live imaging, 1-100 C-max
Procedure: as §1
Accumulation of GFP levels, propodium iodide (PI) and Hoechst staining was monitored using a Nikon TiE2000 confocal laser microscope (lasers 540, 488 and 408 nm), equipped with an automated stage and perfect focus system at 37 °C with humidified atmosphere and 5% CO2/air mixture. All imaging was similar as previously described^5. Each 384-well plate contained one reporter cell line, which was exposed to all the compounds used in the screen at one certain concentration (1, 5, 10, 50 or 100 Cmax); for each concentration at least two replicates were imaged per reporter cell line. For the ICAM1-GFP reporter experiments, cells were first exposed for 8 h to compound only; next, TNFα was added to all wells, up to a final concentration of 10 ng/mL. Directly after TNFα treatment the live cell imaging was started.
Quantitative image analysis was performed with CellProfiler version 2.1.1 (Kamentsky et al. [2011]) with an in house developed CellProfiler module implementing the watershed masked algorithm for segmentation (Yan and Verbeek [2012]; Wink et al. [2017]). Image analysis results were stored as HDF5 files. Data analysis, quality control and graphics were performed using the in house developed R package h5CellProfiler (manuscript in preparation). For each reporter hourly intensity levels of the GFP signal, the nuclear Hoechst33342 intensity levels and at 24 h the PI staining were measured at the single cell level. In addition, cell numbers, nuclei size and cell motility were measured.
GFP intensity cell population means were calculated. In addition, for each plate the cell population mean GFP intensity of the DMSO treated cells was calculated to determine background control values. Per plate, the single cells that had values above the 2X mean, 3X mean were counted resulting in GFP positive fraction measures. For ICAM1, the background control values consisted of DMSO conditions treated with TNFα, and the single cells with values above, as well as below background values were counted. Due to the non-symmetric distribution of ICAM1 cell population GFP intensities, the interquartile range (IQR) was used to count the number of cells 1.5, 2 and 3 times above and below the TNFα IQR control values (Supplemental Fig. 1).
The maximum values over time of the scaled intensity levels and positive GFP fractions were selected for the concentration response curves. These values were fit to a four parameter log-logistic model using the drc package (Ritz et al. [2015]). BMC values were calculated as the concentration at which + 0.25 (and − 0.25 for ICAM1) absolute increase from the initial response values occurred (Fig. 5a).

[6] = test system: CHOP-GFP (ER stress/UPR response); experiment: HepG2 CHOP-GFP BAC reporter, live cell confocal imaging (ER stress/UPR); assay type: cell-based, Human; settings: HepG2 BAC-GFP, 24 h live imaging, 1-100 C-max
[7] = ref Chen et al. [2016], cited from earlier work; for DILI con. (DILI-concern labeling): FDA DILI labeling; for Hepa. (hepatotoxicity class): FDA labeling in eight classes of hepatotoxicity

Compound | Metab (metabolic potential) [1] | p21-GFP reporter response [2] | modulation of TNFα-induced ICAM1-GFP response [3] | modulation of TNFα-induced ICAM1-GFP response ([3]; listed as mercaptopurine) | point-of-departure (PoD) for ICAM-GFP response relative to onset of SRXN1-GFP response ([3]; peak response, concentration series 1-100 C-max) | Cmax [4] [µM] | Srxn1-GFP reporter response [5] | Srxn1-GFP reporter response ([5]; listed as mercaptopurine) | CHOP-GFP reporter response [6] | DILI con. (DILI-concern labeling) [7] | Hepa. (hepatotoxicity class) [7]
COc1cc([C@@H]2c3cc4c(cc3[C@@H](O[C@@H]3O[C@@H]5CO[C@@H](C)O[C@H]5[C@H](O)[C@H]3O)[C@H]3COC(=O)[C@H]23)OCO4)cc(OC)c1O [Etoposide] | YES | strong inducers |  |  |  |  |  |  |  |  | 
Sc1ncnc2nc[nH]c12 [Mercaptopurine] | YES | increased | increased | relatively strong activation; also recorded: mild Srxn1-GFP and ICAM1-GFP activation | at a lower C-max | 0.48 | increased | relatively strong activation; also recorded: mild Srxn1-GFP and ICAM1-GFP activation | increased | Most-DC | 8
C[C@](N)(Cc1ccc(O)c(O)c1)C(=O)O [Methyldopa] | YES | increased | inhibited |  |  | 18.9 | increased |  |  | Most-DC | 8
CCc1nn(CCCN2CCN(c3cccc(Cl)c3)CC2)c(=O)n1CCOc1ccccc1 [Nefazodone] | YES |  | strong ICAM1-GFP suppression |  |  | 3.95 |  |  | CHOP-GFP activation | Most-DC | 8
O=C1CN(/N=C/c2ccc([N+](=O)[O-])o2)C(=O)N1 [Nitrofurantoin] | YES |  | strong ICAM1-GFP suppression |  |  | 6 |  |  | CHOP-GFP activation | Most-DC | 8

Source: article PMC5962642, “Dynamic imaging of adaptive stress response pathway activation for prediction of drug induced liver injury” (Archives of Toxicology, 2018)
